Patent US20250136576A1, “Heterocyclic Compounds and Uses Thereof” (ACEA Therapeutics, Inc., priority 2021, published 2025)

What was measured:
Type in all cases: cell-based
H1975 cells = test: Cell proliferation and growth inhibition assay (CCK-8) in H1975; settings: Homo sapiens, NCI-H1975, 72 h, treated with test compounds for 72 hrs, CCK-8 viability, read-out: EGFR IC50 in H1975
Description: (§1) MV-4-11 and H1975 cells were obtained from the American Type Culture Collection and KM12-luc cells were obtained from JCRB Cell Bank. All cell lines were maintained at 37° C. with 5% C02, in media supplemented with 10% fetal bovine serum and penicillin (100 units/mL) and streptomycin (100 μg/mL). MV-4-11 cells were maintained in Iscove's Modified Dubecco's Medium, H1975 cells were cultured with RPMI 1640 media, and KM12-luc cells were maintained in Dulbecco's Modification of Eagle's Medium. CCK-8 reagent was obtained from Yeasen.
(§2) Cell proliferation was assessed by CCK-8 assay (Yeasen) per the manufacturer's instructions. The MV-4-11 (AML), H1975, and KM12-luc cells were seeded at 30,000, 3,000 and 2,500 cells per well onto 96-well plates, and after a 24 h incubation, the cells were treated with test compounds for 72 hrs. Cell viability was assayed by incubating the cells with CCK-8 reagent for 1-4 hrs. Absorbance was measured at OD450 using the Beckman DTX880. The data was calculated using GraphPad Prism version 6.01. The IC50 values were fitted using a non-linear regression model with a sigmoidal dose response.

MV-4-11 (AML) cells = test: Cell proliferation and growth inhibition assay (CCK-8) in MV-4-11; settings: Homo sapiens, MV4-11; MV-4-11 cells, treated with test compounds for 72 hrs, CCK-8 viability
Description: as §1, §2

KM12-luc cells = test: Cell proliferation and growth inhibition assay (CCK-8) in KM12-luc; settings: KM12-Luc, 72 h, KM12-luc cells, treated with test compounds for 72 hrs, CCK-8 viability; read-out: NTRK IC50 in KM12-luc
How it was run: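 Cells were grown at 37 °C, 5% CO2 with 10% FBS: MV-4-11 in IMDM, H1975 in RPMI 1640, KM12-luc in DMEM. Viability was read by CCK-8 (1-4 hrs reagent incubation, absorbance at OD450). IC50 came from a non-linear sigmoidal dose-response fit.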

Row | Compound | IC50 (H1975 cells) | IC50 (MV-4-11 (AML) cells) | IC50 (KM12-luc cells)
1 | CCC(=O)Nc1cccc(Nc2ncc(Cl)c(Nc3ccc(C4CCCN(C)C4)cc3OC)n2)c1 (stereo not shown) [Compound 166, N-(3-((5-chloro-4-((2-methoxy-4-(1-methylpiperidin-3-yl)phenyl)amino)pyrimidin-2-yl)amino)phenyl)propionamide] | 691 nM | 96.8 nM | 39.5 nM
2 | CCC(=O)Nc1cccc(Nc2ncc(C(F)(F)F)c(Nc3ccc(N4CCN(C(C)=O)CC4)cc3OC)n2)c1 [Compound 169, N-(3-((4-((4-(4-acetylpiperazin-1-yl)-2-methoxyphenyl)amino)-5-(trifluoromethyl)pyrimidin-2-yl)amino)phenyl)propionamide] | 285 nM | 25.9 nM | 43.8 nM
3 | COc1cnc(Nc2ccc(OCCN(C)C)c(NC(C)=O)c2)nc1-c1c[nH]c2c(C)cccc12 [Compound 284, N-(2-(2-(dimethylamino)ethoxy)-5-((5-methoxy-4-(7-methyl-1H-indol-3-yl)pyrimidin-2-yl)amino)phenyl)acetamide] | 1030 nM | 63.8 nM | 15 nM
4 | CCN(CCN(C)C)c1ccc(Nc2ncc(C(F)(F)F)c(-c3c[nH]c4cccc(F)c34)n2)cc1N [Compound 319, N^1-(2-(dimethylamino)ethyl)-N^1-ethyl-N^4-(4-(4-fluoro-1H-indol-3-yl)-5-(trifluoromethyl)pyrimidin-2-yl)benzene-1,2,4-triamine] | 772 nM | 29.7 nM | 19.1 nM
5 | CC(=O)Nc1cc(Nc2ncc(C(F)(F)F)c(-c3c[nH]c4c(F)cccc34)n2)ccc1N(C)CCN(C)C [Compound 334, N-(2-((2-(dimethylamino)ethyl)(methyl)amino)-5-((4-(7-fluoro-1H-indol-3-yl)-5-(trifluoromethyl)pyrimidin-2-yl)amino)phenyl)acetamide] | 92.1 nM | 3.4 nM | 3 nM
6 | CN(C)CCN(C)c1ccc(Nc2ncc(C(F)(F)F)c(-c3c[nH]c4c(F)cccc34)n2)cc1N [Compound 335, N^1-(2-(dimethylamino)ethyl)-N^1-methyl-N^4-(4-(7-fluoro-1H-indol-3-yl)-5-(trifluoromethyl)pyrimidin-2-yl)benzene-1,2,4-triamine] | 75.4 nM | 3.1 nM | 6.1 nM
7 | CC(=O)Nc1cc(Nc2ncc(C(F)(F)F)c(-c3cn(C)c4c(C)cccc34)n2)ccc1N(C)CCN(C)C [Compound 368, N-(5-((4-(1,7-dimethyl-1H-indol-3-yl)-5-(trifluoromethyl)pyrimidin-2-yl)amino)-2-((2-(dimethylamino)ethyl)(methyl)amino)phenyl)acetamide] | 356 nM |  | 22.9 nM
8 | COc1cccc2c(-c3nc(Nc4cc(NC(C)=O)c(N(C)CCN(C)C)cc4F)ncc3C(F)(F)F)c[nH]c12 [Compound 378, N-(2-((2-(dimethylamino)ethyl)(methyl)amino)-4-fluoro-5-((4-(7-methoxy-1H-indol-3-yl)-5-(trifluoromethyl)pyrimidin-2-yl)amino)phenyl)acetamide] | 26.1 nM |  | 43.4 nM
9 | CC(=O)Nc1cc(Nc2ncc(Cl)c(-c3c[nH]c4ccccc34)n2)cc(F)c1N1CCC(N(C)C)C1 (stereo not shown) [Compound 392, N-(5-((5-chloro-4-(1H-indol-3-yl)pyrimidin-2-yl)amino)-2-(3-(dimethylamino)pyrrolidin-1-yl)-3-fluorophenyl)acetamide] | 862 nM |  | 18.1 nM
10 | CC(=O)Nc1cc(Nc2ncc(Cl)c(-c3cn(C)c4ccccc34)n2)ccc1NCCN(C)C [Compound 400a, N-(5-((5-chloro-4-(1-methyl-1H-indol-3-yl)pyrimidin-2-yl)amino)-2-((2-(dimethylamino)ethyl)amino)phenyl)acetamide] | 1010 nM |  | 42 nM
11 | CC(=O)Nc1cc(Nc2ncc(Cl)c(-c3c[nH]c4c(F)cccc34)n2)ccc1N(C)CCN(C)C [Compound 412, N-(5-((5-chloro-4-(7-fluoro-1H-indol-3-yl)pyrimidin-2-yl)amino)-2-((2-(dimethylamino)ethyl)(methyl)amino)phenyl)acetamide] | 380 nM |  | 8.4 nM
12 | CC(=O)Nc1cc(Nc2ncc(Cl)c(-c3c[nH]c4c(C)cccc34)n2)ccc1N(C)CCN(C)C [Compound 423, N-(5-((5-chloro-4-(7-methyl-1H-indol-3-yl)pyrimidin-2-yl)amino)-2-((2-(dimethylamino)ethyl)(methyl)amino)phenyl)acetamide] | 66.5 nM |  | 4.7 nM
13 | COc1cccc2c(-c3nc(Nc4ccc(N(C)CCN(C)C)c(NC(C)=O)c4)ncc3Cl)c[nH]c12 [Compound 433, N-(5-(5-chloro-4-(7-methoxy-1H-indol-3-yl)pyrimidin-2-ylamino)-2-((2-(dimethylamino)ethyl)(methyl)amino)phenyl)acetamide] | 506 nM |  | 13.9 nM
14 | CCN(CCN(C)C)c1ccc(Nc2ncc(Cl)c(-c3c[nH]c4ccccc34)n2)cc1NC(C)=O [Compound 442, N-(5-((5-chloro-4-(1H-indol-3-yl)pyrimidin-2-yl)amino)-2-((2-(dimethylamino)ethyl)(ethyl)amino)phenyl)acetamide] | 328 nM |  | 6.4 nM
15 | CC(=O)Nc1cc(Nc2ncc(Cl)c(-c3cnc(C(C)C)n3C)n2)ccc1N(C)CCN(C)C [Compound 452, N-(5-((5-chloro-4-(2-isopropyl-1-methyl-1H-imidazol-5-yl)pyrimidin-2-yl)amino)-2-((2-(dimethylamino)ethyl)(methyl)amino)phenyl)acetamide] | > 20000 nM | > 1000 nM | 
16 | CC(=O)Nc1cc(Nc2ncc(C(F)(F)F)c(-c3cn(C)c4c(C)cccc34)n2)ccc1N1CC[C@@H](N(C)C)C1 [Compound R-373, (R)—N-(5-((4-(1,7-dimethyl-1H-indol-3-yl)-5-(trifluoromethyl)pyrimidin-2-yl)amino)-2-(3-(dimethylamino)pyrrolidin-1-yl)phenyl)acetamide] | 923 nM |  | 22.8 nM
17 | COc1cccc2c(-c3nc(Nc4ccc(N5CC[C@@H](N(C)C)C5)c(NC(C)=O)c4)ncc3C(F)(F)F)cn(C)c12 [Compound R-389, (R)—N-(2-(3-(dimethylamino)pyrrolidin-1-yl)-5-((4-(7-methoxy-1-methyl-1H-indol-3-yl)-5-(trifluoromethyl)pyrimidin-2-yl)amino)phenyl)acetamide] | 940 nM |  | 24.8 nM
18 | COc1cccc2c(-c3nc(Nc4ccc(N5CC[C@@H](N(C)C)C5)c(NC(C)=O)c4)ncc3Cl)cn(C)c12 [Compound R-435, (R)—N-(5-(5-chloro-4-(7-methoxy-1-methyl-1H-indol-3-yl)pyrimidin-2-ylamino)-2-(3-(dimethylamino)pyrrolidin-1-yl)phenyl)acetamide] | 1040 nM |  | 31.9 nM
19 | COc1cnc(Nc2ccc(N3CC[C@H](N(C)C)C3)c(NC(C)=O)c2)nc1-c1c[nH]c2c(F)cccc12 [Compound S-280, (S)—N-(2-(3-(dimethylamino)pyrrolidin-1-yl)-5-((4-(7-fluoro-1H-indol-3-yl)-5-methoxypyrimidin-2-yl)amino)phenyl)acetamide] | 1250 nM |  | 14.6 nM
20 | COc1cnc(Nc2ccc(N3CC[C@H](N(C)C)C3)c(NC(C)=O)c2)nc1-c1c[nH]c2c(OC)cccc12 [Compound S-288, (S)—N-(2-(3-(dimethylamino)pyrrolidin-1-yl)-5-((5-methoxy-4-(7-methoxy-1H-indol-3-yl)pyrimidin-2-yl)amino)phenyl)acetamide] | 1260 nM |  | 16.9 nM
21 | CC(=O)Nc1cc(Nc2ncc(C(F)(F)F)c(-c3cn(C)c4c(C)cccc34)n2)ccc1N1CC[C@H](N(C)C)C1 [Compound S-373, (S)—N-(5-((4-(1,7-dimethyl-1H-indol-3-yl)-5-(trifluoromethyl)pyrimidin-2-yl)amino)-2-(3-(dimethylamino)pyrrolidin-1-yl)phenyl)acetamide] | 461 nM |  | 21.1 nM
22 | COc1cccc2c(-c3nc(Nc4ccc(N5CC[C@H](N(C)C)C5)c(NC(C)=O)c4)ncc3C(F)(F)F)cn(C)c12 [Compound S-389, (S)—N-(2-(3-(dimethylamino)pyrrolidin-1-yl)-5-((4-(7-methoxy-1-methyl-1H-indol-3-yl)-5-(trifluoromethyl)pyrimidin-2-yl)amino)phenyl)acetamide] | 898 nM |  | 23.5 nM
23 | COc1cccc2c(-c3nc(Nc4ccc(N5CC[C@H](N(C)C)C5)c(NC(C)=O)c4)ncc3Cl)cn(C)c12 [Compound S-435, (S)—N-(5-(5-chloro-4-(7-methoxy-1-methyl-1H-indol-3-yl)pyrimidin-2-ylamino)-2-(3-(dimethylamino)pyrrolidin-1-yl)phenyl)acetamide] | 1560 nM |  | 48.1 nM
